From patent publication US20050032708A1, “Modulation of physiological processes and agents useful for same” (priority 2001, published 2005)
“Also recorded” adds a separate entry of the source.

Key:
[1] = cited from earlier work
[2] = Body weights and daily water consumption of rats receiving NAC in drinking water for 14 days; assay type: in vivo
Protocol: (§1) Male Sprague Dawley rats (380-430 g) were obtained from Department of Pathology, University of Melbourne. On arrival rats were housed in pairs in a temperature-controlled (20-24° C.) colony room maintained on a 12 hr light-dark cycle (6 am-6 pm). Rats had continuous access to food and water (plain or treated) and were weighed on arrival and then daily from onset of experiment. Rats were allowed to adjust to the new environment for 3 days before starting the experiment.
(§2) This experiment consisted of 24 rats in total. Eight rats received plain drinking water (controls), 8 rats received 0.5% NAC (Sigma) in their drinking water (low dose) and 8 rats received 2% NAC in their drinking water (high dose). Drug treatment was administered for 14 consecutive days. Bottles were cleaned and fresh drug solution was made up on days 4, 8 and 11. Body weights and amount of drinking water consumed per box were measured on a daily basis. After 7 days of drug treatment, behavioural testing began and continued until day 14 of treatment.

Male Sprague Dawley rats = assay: Effect of amphetamine on locomotor activity of rats receiving NAC in drinking water; assay type: in vivo
Protocol: as §1, §2
Locomotor activity was assessed in 8 automated photo cell cages, data being collected in 5-min intervals. Animals were placed individually in cages and baseline activity was measured during the first 30 minutes. After 30 minutes rats received a subcutaneous injection of either saline (vehicle), 0.5 mg/kg or 5 mg/kg amphetamine and locomotor activity was measured for a further 90 minutes. Drug treatment and time of day of the experiment were both randomised (see table 1). Each rat received 3 locomotor sessions in total. A period of 3 days was allowed between locomotor experiments to ensure complete elimination of amphetamine.
Locomotor hyperactivity was obtained as total distance moved per 30 min, i.e. before injection and 0-30 min, 30-60 min and 60-90 min after injection. In order to account for slight variations in baseline activity, post-injection behaviour was expressed a change of baseline activity. Average data for rats receiving water, 0.5% NAC, or 2% NAC was compared using analysis of variance for repeated measures (ANOVA) using the Systat 9.0 software package.

humans = settings: cited from earlier work
[3] = 600-1200 mg/day for three weeks, Ziegler and Gries, 1997

O=C(O)CCCCC1CCSS1 (stereo not drawn) [Alpha-lipoic Acid]
Symptoms of diabetic neuropathy [1, 3]: reproducibly demonstrated benefit | Tolerability [1, 3]: tolerated with no adverse effects

CC(=O)N[C@@H](CS)C(=O)O [NAC, N-acetyl cysteine]
Average daily water consumption per box ([2]; 0.5% NAC in drinking water (low dose), 14 days of treatment, control rats 77-90 ml): 60 to 72 mL | Body weight over the treatment period compared with controls ([2]; 2% NAC in drinking water (high dose), 14 days): marked decrease in body weight | Interaction of treatment x time, 5 mg/kg of amphetamine, vs controls (significant or not) (Male Sprague Dawley rats; 0.5% NAC): not | Overall effect of 0.5 mg/kg of amphetamine on locomotor activity vs water controls (Male Sprague Dawley rats; 0.5% NAC in drinking water, F(1,14)=5.11, P=0.04): tended to be greater | Baseline locomotor activity before injection, averaged over three sessions, vs water controls (Male Sprague Dawley rats; 0.5% or 2% NAC in drinking water, difference did not reach statistical significance): tended to be lower | Duration of locomotor hyperactivity after 5 mg/kg of amphetamine (Male Sprague Dawley rats; 2% NAC): maintained longer than in controls; also recorded: prolonged effect | Overall effect of 0.5 mg/kg of amphetamine on locomotor activity vs water controls (Male Sprague Dawley rats; 2% NAC in drinking water, F(1,13)=4.3, P=0.06): tended to be greater | Overall effect of 5 mg/kg of amphetamine on locomotor activity vs controls (Male Sprague Dawley rats; 2% NAC to drink, failed to reach overall statistical significance): tended to be greater | Interaction of treatment x time, 5 mg/kg of amphetamine, vs controls (Male Sprague Dawley rats; 2% NAC, F(2,28)=4.9, P=0.024): significant | Maximal effect of 0.5 mg/kg of amphetamine on locomotor activity vs water controls (Male Sprague Dawley rats; 30-60 min after injection, either NAC dose (0.5% or 2%), 0.5 mg/kg): significantly greater; also recorded: greater maximal effect | Plasma cystine levels (humans; dose of 3 g/day (4 capsules, 2 bid)): sustains elevated plasma cystine levels | Human dosing without adverse effects (humans; human, Louwerse et al., 1995): up to 5 g/day

C[Se]CC[C@H](N)C(=O)O [Selenomethionione]
Adverse effects of long-term dose ([1]; 200 ug, one per day): no known adverse effects

O=C1O[C@H]([C@@H](O)CO)C(O)=C1O [Vitamin C]
Elevation of plasma levels ([1]; 500 mg daily): 60%

Cc1c(C)c2c(c(C)c1O)CC[C@@](C)(CCC[C@H](C)CCC[C@H](C)CCCC(C)C)O2 [alpha-tocopherol]
Adverse effects ([1]; 400 IU): without causing adverse effects | CSF levels ([1]; 400 IU): sufficient to increase CSF levels | Doses that may cause coagulopathies and can be a source of radicals ([1]; Bowry et al., 1995): higher than 2000 IU/day

CC(N)Cc1ccccc1 (stereo not drawn) [amphetamine]
Locomotor activity after subcutaneous injection of amphetamine (Male Sprague Dawley rats; 0.5 mg/kg of amphetamine, 90 min after injection): induced a behavioural hyperactivity | Locomotor activity after subcutaneous injection of amphetamine (Male Sprague Dawley rats; 5 mg/kg of amphetamine, activity fell to low levels later in the 90 min observation period): initially induced marked behavioural hyperactivity
